Results reported in PMC8648872, “A host-directed macrocyclic peptide therapeutic for MDR gram negative bacterial infections” (Scientific Reports, 2021).
Values after ≈ are worked out from the molar mass of the structure shown. Read-outs that look alike come from different tables or passages of the source. Where a SMILES comes first, the peptide text is derived from it. Bridges are numbered along the chain shown (N, C = ends).

Tests used:
E. coli BAA-2340 (KPC-2) = assay: microbe, parasite or virus in culture; assay type: cell-based
Protocol: (§1) Bacterial strains were obtained from American Type Culture Collection. K. pneumoniae strains included BAA-1705 (blaKPC-2, hypermucoid), BAA-2146 (blaNDM-1), BAA-700603 (SHV-18, extended spectrum β-lactamase, ESBL), and BAA-1706 (non-CRE reference strain). E. coli strains included BAA-2340 (blaKPC-2), BAA-2471 (blaNDM-1), and ML35 (non-CRE reference strain).
(§2) Minimum inhibitory concentration (MIC) assays were performed ± 50% heat-inactivated mouse serum using Clinical and Laboratory Standards Institute (CLSI; document M07-A9) protocols. Bacteria (5 × 10^5 CFU/ml) were incubated with antibiotics or peptide for 20 h at 37 °C, and bacterial growth was determined by A620 using a SpectraMax M5e plate reader.

E. coli BAA-2471 (NDM-1) = assay: microbe, parasite or virus in culture; assay type: cell-based
Protocol: as §1, §2

E. coli ML35 = assay: microbe, parasite or virus in culture; assay type: cell-based; settings: E. coli ML35, no MDR factor
Protocol: as §1, §2

[1] = system: K. pneumoniae 700603 (ESBL); assay: microbe, parasite or virus in culture; assay type: cell-based
Protocol: as §1, §2

[2] = system: K. pneumoniae BAA-1705 (KPC-2); assay: microbe, parasite or virus in culture; assay type: cell-based; settings: 37 °C
Protocol: as §1, §2

K. pneumoniae BAA-1706 = assay: microbe, parasite or virus in culture; assay type: cell-based
Protocol: as §1, §2

[3] = system: K. pneumoniae BAA-2146 (NDM-1); assay: microbe, parasite or virus in culture; assay type: cell-based
Protocol: as §1, §2

[4] = system: CRE and non-CRE strains of K. pneumoniae and E. coli; assay type: cell-based; settings: standard CLSI assay conditions
Protocol: as §1, §2

[5] = system: Kp-1705 (K. pneumoniae BAA-1705); assay: Kp-1705 bacteremic sepsis, survival; assay type: in vivo, BALB/c mice; settings: Kp-1705 i.p. in BALB/c mice; single i.p. dose 1.25 mg/kg 1 h p.i.
Protocol: BALB/c mice (Jackson Laboratories) 8–10 weeks of age were acclimated (3–5 to a cage for at least 5 days prior to infection) in a thermostatically controlled room with 12 h light/dark cycle. Cryopreserved K. pneumoniae cells were thawed and adjusted to a density of 6–10 × 10^8 CFU/ml, confirmed by plating on trypticase soy agar (TSA) plates. E. coli BAA-2340 was grown to log-phase in trypticase soy broth, pelleted, washed with PBS, and resuspended in PBS at 0.5–1 × 10^9 CFU/ml. Mice were infected by i.p. injection of 2–5 × 10^8 CFU of Kp-1705 or 3–6 × 10^7 CFU of E. coli BAA-2340 using a 28 g needle in a volume of 0.5 ml. Post-infection, mice were observed three times a day for at least 4 days and then daily for 28 days. Mice were euthanized when they became moribund. All experiments used both male and female mice and were repeated at least twice.

disseminated candidiasis = settings: mouse models of disseminated candidiasis; cited from earlier work
From the text: MTD12813 is a bioinspired macrocyclic peptide that is structurally related to naturally occurring θ-defensins. RTD-1, the prototype θ-defensin, was identified as a broad-spectrum antimicrobial peptide in vitro[8],[9]. […] Mechanisms implicated in the moderation of cytokine-driven inflammation include modulation of NFκB and MAPK pathways, suppression of TNF release via the inhibition of the pro-TNF sheddase TACE (ADAM17)[26], and dis ...

[6] = E. coli BAA-2340, KPC-2, 50% heat inactivated mouse serum
[7] = E. coli BAA-2340, KPC-2, CLSI, 20 h, 37 °C, A620, no serum
[8] = 50% heat inactivated mouse serum
[9] = CLSI, 20 h, 37 °C, A620, no serum
[10] = CLSI M07-A9, 5 × 10^5 CFU/ml, 20 h, A620, no serum
[11] = in the presence of 50% heat inactivated mouse serum, 20 h, A620
[12] = K. pneumoniae BAA-1706, no MDR factor, 50% heat inactivated mouse serum
[13] = K. pneumoniae BAA-1706, no MDR factor, CLSI, 20 h, 37 °C, A620, no serum
[14] = Escherichia coli, BAA2471, 50% heat inactivated mouse serum, read-out: MIC
[15] = Escherichia coli, BAA2471, CLSI, 20 h, 37 °C, A620, no serum, read-out: MIC
[16] = Escherichia coli, 50% heat inactivated mouse serum, read-out: MIC
[17] = Escherichia coli, CLSI, 20 h, 37 °C, A620, no serum, read-out: MIC
[18] = Klebsiella pneumoniae, 50% heat inactivated mouse serum, read-out: MIC
[19] = Klebsiella pneumoniae, CLSI, 20 h, 37 °C, A620, no serum, read-out: MIC
[20] = Klebsiella pneumoniae, BAA1705, CLSI M07-A9, 5 × 10^5 CFU/ml, 20 h, A620, no serum, read-out: MIC
[21] = Klebsiella pneumoniae, BAA1706, K. pneumoniae BAA-1706, no MDR factor, 50% heat inactivated mouse serum, read-out: MIC
[22] = Klebsiella pneumoniae, BAA2146, 50% heat inactivated mouse serum, read-out: MIC
[23] = Klebsiella pneumoniae, BAA2146, CLSI, 20 h, 37 °C, A620, no serum, read-out: MIC

Row | Compound | MIC (E. coli BAA-2340 (KPC-2); [6]) [µg/mL] | MIC (E. coli BAA-2340 (KPC-2); [7]) [µg/mL] | MIC (E. coli BAA-2471 (NDM-1); [8]) [µg/mL] | MIC (E. coli BAA-2471 (NDM-1); [9]) [µg/mL] | MIC (E. coli ML35; [8]) [µg/mL] | MIC (E. coli ML35; [9]) [µg/mL] | MIC [1, 8] [µg/mL] | MIC [1, 9] [µg/mL] | MIC [2, 10] [µg/mL] | MIC [2, 11] [µg/mL] | MIC (K. pneumoniae BAA-1706; [12]) [µg/mL] | MIC (K. pneumoniae BAA-1706; [13]) [µg/mL] | MIC [3, 8] [µg/mL] | MIC [3, 9] [µg/mL] | MIC against all seven organisms of the panel [4] [µg/mL] | long term (≥ 28 days) survival [5] | MIC (E. coli BAA-2340 (KPC-2); Escherichia coli, BAA2340) [µg/mL] | MIC (E. coli BAA-2471 (NDM-1); [14]) [µg/mL] | MIC (E. coli BAA-2471 (NDM-1); [15]) [µg/mL] | MIC (E. coli ML35; [16]) [µg/mL] | also measured
1 | Colistin | < 0.78 | < 0.78 | < 0.78 | < 0.78 | < 0.78 | < 0.78 | < 0.78 | < 0.78 | < 0.78 | < 0.78 | < 0.78 | < 0.78 | < 0.78 | < 0.78 | < 0.78 | 100% |  |  |  |  | 
2 | C[C@@H](O)[C@H]1C(=O)N2C(C(=O)O)=C(SCCN=CN)C[C@H]12 [Imipenem] |  |  |  |  |  |  |  |  |  |  |  |  |  |  |  | neither carbapenem provided significant survival benefit | 6.25 (≈ 20.9 µM) | 25 (≈ 83.5 µM) | 50 (≈ 167 µM) | < 0.78 | MIC (E. coli BAA-2340 (KPC-2); Escherichia coli, BAA2340, E. coli BAA-2340, KPC-2, CLSI, 20 h, 37 °C, A620, no serum, read-out: MIC): 25 µg/mL (≈ 83.5 µM); MIC (E. coli ML35; [17]): < 0.78 µg/mL; MIC [1, 18]: < 0.78 µg/mL; MIC [1, 19]: < 0.78 µg/mL; MIC ([2]; Klebsiella pneumoniae, BAA1705, 20 h, in the presence of 50% heat inactivated mouse serum, A620): 12.5 µg/mL; MIC [2, 20]: > 100 µg/mL; MIC (K. pneumoniae BAA-1706; [21]): < 0.78 µg/mL; MIC (K. pneumoniae BAA-1706; Klebsiella pneumoniae, BAA1706, K. pneumoniae BAA-1706, no MDR factor, CLSI, 20 h, 37 °C, A620, no serum, read-out: MIC): 3.13 µg/mL (≈ 10.5 µM); MIC [3, 22]: 25 µg/mL (≈ 83.5 µM); MIC [3, 23]: > 100 µg/mL
3 | Polymyxin B | < 0.78 | < 0.78 | < 0.78 | < 0.78 | < 0.78 | < 0.78 | < 0.78 | < 0.78 | < 0.78 | < 0.78 | < 0.78 | < 0.78 | < 0.78 | < 0.78 | < 0.78 | 95% |  |  |  |  | 
4 | C[C@@H](O)[C@H]1C(=O)N2C(C(=O)O)=C(S[C@@H]3CN[C@H](C(=O)N(C)C)C3)[C@H](C)[C@H]12 [Meropenem] |  |  |  |  |  |  |  |  |  | 50 |  |  |  |  |  | neither carbapenem provided significant survival benefit | 6.25 (≈ 16.3 µM) | > 100 | 50 (≈ 130 µM) | < 0.78 | MIC (E. coli BAA-2340 (KPC-2); Escherichia coli, BAA2340, 20 h): 6.25 µg/mL (≈ 16.3 µM); MIC (E. coli ML35; [17]): < 0.78 µg/mL; MIC [1, 18]: < 0.78 µg/mL; MIC [1, 19]: < 0.78 µg/mL; MIC [2, 20]: 50 µg/mL (≈ 130 µM); MIC (K. pneumoniae BAA-1706; Klebsiella pneumoniae, BAA1706, 20 h): 1.56 µg/mL (≈ 4.07 µM); MIC (K. pneumoniae BAA-1706; [21]): < 0.78 µg/mL; MIC [3, 22]: > 100 µg/mL; MIC [3, 23]: 100 µg/mL (≈ 261 µM)
5 | CC[C@H](C)[C@@H]1NC(=O)[C@@H]2CSSC[C@H](NC(=O)[C@H](CCCNC(=N)N)NC(=O)[C@@H]3CSSC[C@H](NC1=O)C(=O)N[C@@H]([C@@H](C)O)C(=O)N[C@@H](CCCNC(=N)N)C(=O)NCC(=O)N[C@@H](Cc1ccccc1)C(=O)N3)C(=O)N[C@@H](CC(C)C)C(=O)N[C@H]1CSSC[C@H](NC(=O)[C@H](C(C)C)NC(=O)CNC(=O)[C@H](CCCNC(=N)N)NC(=O)[C@H](CCCNC(=N)N)NC1=O)C(=O)N[C@@H](CCCNC(=N)N)C(=O)N2 [RTD-1] (cyclo(GFCRCLCRRGVCRCICTR); disulfide 3-16, 5-14, 7-12) | > 100 | 50 (≈ 24 µM) | > 100 | 25 (≈ 12 µM) | > 100 | 25 (≈ 12 µM) | > 100 | > 100 | > 100 | > 100 | > 100 | > 100 | > 100 | 100 (≈ 48 µM) |  |  |  |  |  |  | plasma Cmax as share of the MIC of the peptide (disseminated candidiasis): < 1%
